{
  "source": "patent US7405214B2",
  "about": "“Nucleoside derivatives and therapeutic use thereof” (Rexahn Corporation, priority 2004, dated 2008)",
  "key": {"MDA-MB-231 (breast)": {"system": "MDA-MB-231 (breast)", "test": "SRB cell growth inhibition assay, MDA-MB-231", "type": "cell-based", "details": "Homo sapiens, MDA-MB-231, 96 hours", "description": "(§1) Cancer cell lines to determine the effect of nucleoside compounds were obtained from the following sources: Human OVCAR-3 (ovary), MCF-7 (breast, hormone-dependent), MDA-MB-231 (breast), HeLa (cervix), PC3 (prostate), LNCap (prostate), HepG2 (liver), A549 (lung), NCI-H226 (lung), HT-29 (colon), HCT116 (colon), SK-MEL-28 (melanoma) and PANC-1 (pancreas) from the American Type Culture Collection (ATCC) (Manassas, Va.); U251 (brain) from Riken (Japan); MKN-45 (stomach) from DSMZ (Germany); UMRC2 (kidney) from the United States National Cancer Institute (Bethesda, Md.). […]\n(§2) The growth inhibition assay of RX-3117 against 16 human tumor cell lines was performed using the Sulforhodamine B (“SRB”) method (Skehan et al., J. National Cancer Institute, 82: 1107-1112 (1990)). […] After 5 minutes agitation in 10 mM Tris solution, the absorbance of each well was measured at 530 nm using Benchmark Plus Microplate reader (Bio-Rad Laboratories, Hercules, Calif.).\n(§3) To translate the OD530 values into the number of live cells in each well, the OD530 values were compared to those on standard OD530—versus—cell number curves generated for each cell line. The percent survival was calculated using the formula: % Survival=live cell number[test]/live cell number[control]×100\n(§4) The IC50 values were calculated by non-linear regression analysis."}, "HCT116 (colon)": {"system": "HCT116 (colon)", "test": "SRB cell growth inhibition assay, HCT116", "type": "cell-based", "details": "Homo sapiens, HCT-116, HCT116, 96 hours", "description": "as §1, §2, §3, §4"}, "NCI-H226 (lung)": {"system": "NCI-H226 (lung)", "test": "SRB cell growth inhibition assay, NCI-H226", "type": "cell-based", "details": "Homo sapiens, NCI-H226, 96 hours", "description": "as §1, §2, §3, §4"}, "HT-29 (colon)": {"system": "HT-29 (colon)", "test": "SRB cell growth inhibition assay, HT-29", "type": "cell-based", "details": "Homo sapiens, HT-29, 96 hours", "description": "as §1, §2, §3, §4"}, "MKN-45 (stomach)": {"system": "MKN-45 (stomach)", "test": "SRB cell growth inhibition assay, MKN-45", "type": "cell-based", "details": "Homo sapiens, MKN-45, 96 hours", "description": "as §1, §2, §3, §4"}, "[1]": {"system": "MCF-7 (breast, hormone-dependent)", "test": "SRB cell growth inhibition assay, MCF-7", "type": "cell-based", "details": "Homo sapiens, MCF7, MCF-7, 96 hours", "description": "as §1, §2, §3, §4"}, "A549 (lung)": {"system": "A549 (lung)", "test": "SRB cell growth inhibition assay, A549", "type": "cell-based", "details": "Homo sapiens, A549, 96 hours", "description": "as §1, §2, §3, §4"}, "PANC-1 (pancreas)": {"system": "PANC-1 (pancreas)", "test": "SRB cell growth inhibition assay, PANC-1", "type": "cell-based", "details": "Homo sapiens, PANC-1, 96 hours", "description": "as §1, §2, §3, §4"}, "PC3 (prostate)": {"system": "PC3 (prostate)", "test": "SRB cell growth inhibition assay, PC3", "type": "cell-based", "details": "Homo sapiens, PC3, 96 hours", "description": "as §1, §2, §3, §4"}, "HepG2 (liver)": {"system": "HepG2 (liver)", "test": "SRB cell growth inhibition assay, HepG2", "type": "cell-based", "details": "Homo sapiens, HepG2, 96 hours", "description": "as §1, §2, §3, §4"}, "OVCAR-3 (ovary)": {"system": "OVCAR-3 (ovary)", "test": "SRB cell growth inhibition assay, OVCAR-3", "type": "cell-based", "details": "Homo sapiens, OVCAR-3, 96 hours", "description": "as §1, §2, §3, §4"}, "U251 (brain)": {"system": "U251 (brain)", "test": "SRB cell growth inhibition assay, U251", "type": "cell-based", "details": "Homo sapiens, U-251, U251, 96 hours", "description": "as §1, §2, §3, §4"}, "UMRC2 (kidney)": {"system": "UMRC2 (kidney)", "test": "SRB cell growth inhibition assay, UMRC2", "type": "cell-based", "details": "Homo sapiens, UMRC2, 96 hours", "description": "as §1, §2, §3, §4"}, "HeLa (cervix)": {"system": "HeLa (cervix)", "test": "SRB cell growth inhibition assay, HeLa", "type": "cell-based", "details": "Homo sapiens, 96 hours", "description": "as §1, §2, §3, §4"}, "SK-MEL-28 (melanoma)": {"system": "SK-MEL-28 (melanoma)", "test": "SRB cell growth inhibition assay, SK-MEL-28", "type": "cell-based", "details": "Homo sapiens, SK-MEL-28, 96 hours", "description": "as §1, §2, §3, §4"}, "LnCap (prostate)": {"system": "LnCap (prostate)", "test": "SRB cell growth inhibition assay, LnCap", "type": "cell-based", "details": "Homo sapiens, 96 hours", "description": "as §1, §2, §3, §4"}, "[2]": {"system": "HCT116 human colon carcinoma xenografts", "test": "Xenograft study in nude mice", "type": "in vivo", "details": "intraperitoneal, three times per week day 5 to day 37; for tumor volume compared to the controls: after day 37", "method": "In order to observe the inhibition of growth of tumor in an animal model, an […] xenograft study of nude mice was conducted utilizing RX-3117. Suitable human cancer cell lines are those that have been tested already for inhibition of cancer cell growth, and particularly preferred was colon carcinoma HCT116. The antitumor efficacy of RX-3117 was evaluated against subcutaneously injected tumor xenografts in nude mice and tumor volume was measured after the treatment of RX-3117.\nHCT116 cell suspension (2×10^6 cells in 0.1 ml of RPMI) was injected subcutaneously into the right flank of six-week-old male athymic mice (BALB/c nu/nu) on day 0. A sufficient number of mice were injected with HCT116 cell suspension so that tumors in a volume range as narrow as possible were selected for the trial on the day of treatment initiation. Animals with tumors in the proper size range were assigned to various treatment groups. RX-3117 was dissolved in 10% DMSO in PBS and solvent alone served as control. All study medications (control, RX-3117: 2 mg/kg/day, RX-3117: 10 mg/kg/day) were given by intraperitoneal injections three times per week starting from day 5 and ending on day 37. To quantify tumor growth, three perpendicular diameters of the tumors were measured with calipers every 3-5 days, and the body weight of the mice was monitored for toxicity. The tumor volume was calculated using the formula: tumor volume (mm^3)=(width)×(length)×(height)×π/6."}},
  "data": [
    {"smiles": "Nc1ccn([C@@H]2C(F)=C(CO)[C@@H](O)[C@H]2O)c(=O)n1", "note": "[RX-3117, (1S,4R,5S)-4-Amino-1-(2-fluoro-4,5-dihydroxy-3-hydroxymethyl-cyclopent-2-enyl)-1H-pyrimidin-2-one]", "values": [
      {"measurement": "IC50", "setting": "MDA-MB-231 (breast)", "result": 180, "unit": "nM"},
      {"measurement": "IC50", "setting": "HCT116 (colon)", "result": 190, "unit": "nM"},
      {"measurement": "IC50", "setting": "NCI-H226 (lung)", "result": 250, "unit": "nM"},
      {"measurement": "IC50", "setting": "HT-29 (colon)", "result": 280, "unit": "nM"},
      {"measurement": "IC50", "setting": "MKN-45 (stomach)", "result": 340, "unit": "nM"},
      {"measurement": "IC50", "setting": "[1]", "result": 340, "unit": "nM"},
      {"measurement": "IC50", "setting": "A549 (lung)", "result": 500, "unit": "nM"},
      {"measurement": "IC50", "setting": "PANC-1 (pancreas)", "result": 620, "unit": "nM"},
      {"measurement": "IC50", "setting": "PC3 (prostate)", "result": 630, "unit": "nM"},
      {"measurement": "IC50", "setting": "HepG2 (liver)", "result": 790, "unit": "nM"},
      {"measurement": "IC50", "setting": "OVCAR-3 (ovary)", "result": 800, "unit": "nM"},
      {"measurement": "IC50", "setting": "U251 (brain)", "result": 830, "unit": "nM"},
      {"measurement": "IC50", "setting": "UMRC2 (kidney)", "result": 830, "unit": "nM"},
      {"measurement": "IC50", "setting": "HeLa (cervix)", "result": 1350, "unit": "nM"},
      {"measurement": "IC50", "setting": "SK-MEL-28 (melanoma)", "result": 1380, "unit": "nM"},
      {"measurement": "IC50", "setting": "LnCap (prostate)", "result": 2670, "unit": "nM"},
      {"measurement": "tumor volume compared to the controls", "setting": "[2]; 2 mg/kg/day", "result": "significantly reduced"},
      {"measurement": "tumor volume compared to the controls", "setting": "[2]; 10 mg/kg/day", "result": "significantly reduced"},
      {"measurement": "body weight fluctuations", "setting": "[2]; 2 and 10 mg/kg/day", "result": "no more than 1 g"}
    ]}
  ]
}
